Measured values taken from patent publication US11083708B2, “Pharmacological restoration of epithelial or endothelial barrier integrity by agents blocking EPAC/RAP1 signaling” (The Regents of the University of California, priority 2018, dated 2021).
“Also recorded” adds a separate entry of the source.

Key:
ET-induced footpad edema = experiment: Mouse footpad edema assay: ET injected into the footpad after systemic drug pre-treatment; assay type: in vivo, BALB/cJ mice; details: for Inhibition of ET-induced footpad swelling (edema): i.p. pre-treatment 2-3 h before ET 0.15 pg/20 pl, ESI-09, AG1024, H89 10 mg/kg, SecinH3 250 ul of 2.5 mM, also 2 h post toxin, edema at 8-10 h or 18-24 h
Text: To verify these conclusions in vivo, a footpad swelling assay was turned to in which intra-dermal injection of ET results in robust quantifiable edema. […] The question of which branch(es) of the cAMP pathway contributed to EF-mediated edema was examined by comparing the relative abilities of H89 and ESI-09 to block ET-induced footpad swelling. […] It was concluded that the Epac/Rap1 pathway is the primary mediator of EF-induced edema. In addition, the effect of AG1024 [47], an inhibitor of insulin-like growth factor receptor (IGF-1R), was tested. […] These findings, together with the results described above provide a framework for how effector pathways contribute to cAMP-mediated disruption of Rab11-dependent membrane trafficking (See FIG. 6 for summary diagram).
BALB/cJ mice (8-10 weeks old, female; Jackson Laboratories, Bar Harbor, Me.) were intraperitoneally injected with drugs. SecinH3 (TOCRIS #2849), AG1024 (Selleckchem, S1234), ESI-09 (TOCRIS #4773) or H89 (TOCRIS #2910), or with vehicle (70% DMSO in isotonic glucose for SecinH3, 30% DMSO in isotonic glucose for other drugs) 2-3 h prior to injection of ET (0.15 pg/20 pl, right footpad) or PBS (20 pl, left footpad), and in the case of SecinH3, also 2 h post toxin injection. ESI-09, AG1024 and H89 were administered at 10 mg/kg and SecinH3 was administered as 250 ul and 2.5 mM solution. Edema was assessed at 8-10 h, or 18-24 h by dorsal/plantar measurements using digital calipers.

HBMECs = experiment: ET (EF+PA) intoxication of HBMEC cultures with drug co-treatment; anti-pan-cadherin stain of adherens junctions, Sec15-GFP punctae; assay type: cell-based, human; details: EF and PA 0.2 pg/ml-0.4 pg/ml, co-treatment 24 hrs, Slit2 10 pg/ml, ESI-09 100 pM, H89 10 pM
Experimental: The relative contributions of the Arf6, Epac, and PKA pathways to EF-induced inhibition of Rab11 was next examined, making use of HBMEC cultures. […] To inhibit the Arf6 pathway, cells were treated with Slit2, a secreted peptide that activates the Robo4 receptor to promote vascular stability via stimulation of the ArfGAP GIT [27]. […] Next, to determine the relative contribution of each branch of the cAMP pathway, EF-intoxicated cells were co-treated with ESI-09, an inhibitor specific for Epac, or with H89, a well-characterized inhibitor of PKA[45]. […] It was concluded that Epac/Rap1 is the predominant pathway mediating the cAMP induced effects of ET on exocyst-dependent junctional traffic in this setting.
HBMEC cultures were maintained in DMEM (Corning; Manassas, Va.) containing 10% FBS, 1% Penicillin/streptomycin, 2 mM L-glutamine and were incubated in 37° C., 5% CO2 atmosphere. Cells were gently dislodged with 0.05% trypsin (Mediatech Inc.) and cultured on glass poly-D-lysine coated chamber slides (BD Falcon #354108). At about 80% confluence, EF and PA (0.2 pg/ml-0.4 pg/ml) were added to cells. […] After 24 hrs (FIGS. 5A-5H), cells were fixed for 10 mins at −20° C. in 100% Methanol, then washed with 0.1% Triton in PBS, Sec15GFP fluorescence was inspected directly, while Methanol-fixed cells were stained with a mouse anti pan-Cadherin antibody (Abcam, clone CH-19, 1/100). […]

Compound | Inhibition of ET-induced footpad swelling (edema) (ET-induced footpad edema) | Rescue of junctional pan-cadherin accumulation / adherens junctions (AJs) compromised by EF/ET (HBMECs) | Reversal of ET footpad swelling at both early (8 h) and late (18 h) times (ET-induced footpad edema; injected systemically in mice, 8 h and 18 h) | ET-induced edema in animals in which systemic pre-treatment induced observable symptoms of malaise (ET-induced footpad edema; SecinH3-pretreated mice showing malaise) | Tolerability of systemic pre-treatment with the drug (ET-induced footpad edema; SecinH3 i.p., 250 ul of 2.5 mM solution, some animals)
CC(C)(C)c1cc(C=C(C#N)C#N)cc(Br)c1O [AG1024] | significant reduction of edema; also recorded: can be suppressed; also recorded: Strong, although less persistent, suppression of footpad swelling | – | – | – | –
CC(C)(C)c1cc(C(=O)/C(C#N)=N/Nc2cccc(Cl)c2)no1 [ESI-09] | absolute inhibition of edema; also recorded: strong inhibition of footpad swelling; also recorded: can be suppressed | partially restore normal junctional traffic and visible AJs; also recorded: partially rescues pan-cadherin expression at AJs; also recorded: partially restore junctional barrier integrity | can reverse the footpad swelling | – | –
O=S(=O)(NCCNC/C=C/c1ccc(Br)cc1)c1cccc2cnccc12 [H89] | little or no effect | no detectable rescue; also recorded: does not appreciably rescue junctional cadherin expression | – | – | –
COc1nc(-c2ccc3c(c2)OCO3)n(-c2ccc(NC(=O)CSc3ccccc3)cc2)n1 [SecinH3] | strongly inhibited; also recorded: blocked EF-induced edema; also recorded: can be suppressed | – | – | virtually abolished | observable symptoms of malaise
